PubChem BioAssay AID179 (DTP/NCI, 2004)
The source made the active and inactive calls.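 Rule for the calls: active = compounds giving half or more protection of infected cells from virus-caused growth loss, again on retest; inactive = the rest.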 Where a SMILES comes first, the peptide text is derived from it. The star is where a group is joined. Cbz = O=C(OCc1ccccc1)*; CH2Cl = ClC*

Test system: CEM cells HIV-1 protection, formazan growth assay
Assay: NCI AIDS Antiviral Assay
Conditions: for IC50: measured here: growth of uninfected CEM cells
Procedure, shortened: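 Five concentrations of each compound were applied to infected and uninfected human CEM cells. Protection from HIV-1 was judged from growth measured with a soluble formazan assay.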

| Compound | EC50 | IC50 | outcome |
| --- | --- | --- | --- |
| O=C1C2CCC3C1C(C(=O)O)C(C(=O)O)C23 (stereo not drawn) | > 200 µM | > 200 µM | – |
| C#CC(O)/C=C/C(O)CCCC(O)CC#CC(O)C#CCCCCC(O)/C=C/CCCCCC(=O)CCCCCCCCCCCCCC(O)C(O)C#CC(=O)O (stereo not drawn) | > 50.1 µM | 28.8 µM | – |
| Cc1c(OCc2cccc3ccccc23)ccc2c(=O)cc(SCCN3CCOCC3)oc12 | – | – | inactive |
| CN(C)P(=O)(/C(N)=N/Nc1ccc([N+](=O)[O-])cc1)N(C)C | > 158 µM | 155 µM | – |
| Cc1ccccc1NC(=O)/C(=N/NC(=O)CC#N)C1C(=O)N(c2ccccc2)N=C1N (stereo not drawn) | > 12.6 µM | > 12.6 µM | – |
| CC1=CC(C)(C)N=C2SC(c3ccc(N)cc3)=NN12 | > 251 µM | 2 µM | – |
| OCn1nc(Cl)c2cc(Cl)ccc21 | > 200 µM | 56.2 µM | – |
| Cc1cccc2c3ccc4c(c3n(C)c12)C(=O)C=CC4=O | > 49 µM | 24.5 µM | – |
| OC(Cc1ccc2ccccc2n1)(C(F)(F)Cl)C(F)(F)Cl | > 200 µM | 81.3 µM | – |
| Cc1cc([C@H](C#N)c2nc3ccccc3s2)nc(Cl)n1 | > 15.1 µM | 1.05 µM | – |
| COP1(=S)OCC2OC(n3cc(C)c(=O)[nH]c3=O)CC2O1 (stereo not drawn) | > 100 µM | > 100 µM | – |
| C=C(C)C12CC(C)C34OC(CCCCCCCCCCC)(OC1C3C1OC1(CO)C(O)C1(O)C(=O)C(C)=CC14C)O2 (stereo not drawn) | – | – | active |
| CCOC(=O)c1ncn2c1[nH]c(=O)c1ccccc12 | > 7.41 µM | > 7.41 µM | – |
| CC(C)(C)c1ccc(N=O)cc1 | > 20 µM | 2.45 µM | – |
| CCc1n[nH]c(=O)n1CCO | – | – | inactive |
| NCCCCNCCCNC(=O)c1nc(-c2csc(CCN)n2)sc1Cl | > 200 µM | > 200 µM | – |
| CCOC(=O)C(NC(=O)CC)(Nc1ccccc1F)C(F)(F)F (stereo not drawn) | > 200 µM | > 200 µM | – |
| N#CS/C(Cl)=C(/C(Cl)=C(Cl)Cl)[N+](=O)[O-] | – | – | inactive |
| CCCCCCCCCC1OC(CCCCCCCCC)OC(CCCCCCCCC)O1 (stereo not drawn) | > 200 µM | > 200 µM | – |
| CCCC1(N)CC(OC)OC(C)C1O (stereo not drawn) | > 200 µM | > 200 µM | – |
| CC(=O)N/C=C/c1cc(O)ccc1O | – | – | inactive |
| Nc1nn2cc3c(nc2c1N=Nc1ccc(Cl)cc1)-c1ccccc1CC3 | > 100 µM | > 100 µM | – |

| Compound | EC50 | IC50 | outcome |
| --- | --- | --- | --- |
| COC(=O)c1ccccc1C1CN=NC12Cc1ccc3c(c1C2=O)CCC3 (stereo not drawn) | > 200 µM | – | – |
| CCN(CC)CCOC(=O)/C=C/c1ccccc1 | – | – | inactive |
| Cc1ccc(NC(=O)c2cc(S(=O)(=O)Nc3nc4ncccc4[nH]3)c(SSc3cc(Cl)c(C(=O)Nc4ccc(C)cc4)cc3S(=O)(=O)Nc3nc4ncccc4[nH]3)cc2Cl)cc1 | > 200 µM | > 200 µM | – |
| COc1ccc(C2S/C(=C\c3ccccc3)C(=O)N2NC(=O)Cc2ccccc2)cc1 (stereo not drawn) | > 23.4 µM | 19.1 µM | – |
| O=C1NC(=S)S/C1=C\c1ccc(Cl)cc1 | > 74.1 µM | 66.1 µM | – |
| COC(=O)C1=C(C(=O)OC)SC(C(C(=O)OC)=C2SC3=C(CCCC3)S2)S1 | – | – | inactive |
| CCCCCCCC1=NN(c2ccc(S(=O)(=O)O)cc2)C(=O)C1N=O (stereo not drawn) | > 200 µM | > 200 µM | – |
| CN(C)CCN(C)C(=O)C1CCCN1C(=O)OCc1ccccc1 (stereo not drawn) | > 759 µM | 46.8 µM | – |
| CCCCOC(C)(C)/C=C/C(O)[C@](C)(O)[C@H]1[C@H](O)C[C@@]2(C)[C@@H]3CCc4c(cc(OC5OC(CO)C(O)C(O)C5O)c(O)c4C)C3(C)C(=O)C[C@]12C (stereo partly drawn) | > 200 µM | > 200 µM | – |
| CCOC(=O)C1=C(O)c2ccccc2C(=O)C1=O | > 525 µM | 316 µM | – |
| CC(=O)NNc1nc(C)c(C(/C=C/c2ccc([N+](=O)[O-])cc2)=N/NC(N)=O)s1 | > 33.9 µM | > 33.9 µM | – |
| O=C(O)CN1C(=O)C(=O)c2cc([N+](=O)[O-])ccc21 | > 200 µM | > 200 µM | – |
| OCC1C(O)[C@@H]2OC3(CCCC3)O[C@@H]2CN1OC/C=C/c1ccccc1 (stereo partly drawn) | > 200 µM | 145 µM | – |
| C(=C/C1CCCOC1)/CCc1ccccc1 (stereo not drawn) | – | – | inactive |
| CC(C)CC(NC(=O)OCc1ccccc1)C(=O)NC(Cc1ccccc1)C(=O)CCl (stereo not drawn) (Cbz-Leu-Phe-CH2Cl; configuration not given here) | > 20 µM | 1 µM | – |
| O=C1CC(=O)NC(=NN2C(=O)CSC2c2ccc(Cl)c(Cl)c2)N1 (stereo not drawn) | > 200 µM | 102 µM | – |
| CCCCCCCCCCCCCCC[C@@H](O)C[N+](C)(C)CCO | > 200 µM | 2.82 µM | – |
| CN1CN(c2ccccc2)C2(CCN(CCC3COc4ccccc4O3)CC2)C1=O (stereo not drawn) | > 200 µM | 30.9 µM | – |
| O=C(O)C(=O)Cc1ccc(O)cc1 | > 200 µM | > 200 µM | – |
| C=C1CN(S(=O)(=O)c2ccc(C)cc2)CCCN(Cc2ccc(C)o2)CCCN(S(=O)(=O)c2ccc(C)cc2)C1 | > 200 µM | > 200 µM | – |
| CC1(CCC#N)CCC(N)=CC1=O (stereo not drawn) | > 200 µM | > 200 µM | – |
| CC(C)=CCC/C(C)=C/Cc1c(O)ccc2cc(-c3cc(O)cc(O)c3CC=C(C)C)oc12 | > 22.4 µM | 18.2 µM | – |

| Compound | EC50 | IC50 | outcome |
| --- | --- | --- | --- |
| O=c1c2cc3c(=O)n(O)c(=O)c3cc2c(=O)n1O | > 200 µM | > 200 µM | – |
| CSC12c3cc(C)n(-c4ccc([N+](=O)[O-])cc4)c3CC(C)(C)CN1C(=O)C2Oc1ccccc1 (stereo not drawn) | > 200 µM | 49 µM | – |
| Cc1nnc2sc(N/N=C/c3ccccc3)nn12 | > 200 µM | > 200 µM | – |
| Cc1ncc([N+](=O)[O-])n1CC(O)Cn1cnc([N+](=O)[O-])n1 (stereo not drawn) | > 200 µM | > 200 µM | – |
| Cc1cccc(C)c1NC(=O)C(=O)CC(=O)c1sc(Nc2c(C)cccc2C)nc1C | > 200 µM | > 200 µM | – |
| OCC(O)C(O)C(O)c1nn(-c2ccccc2)c2nc3cc(Cl)c(Cl)cc3nc12 (stereo not drawn) | – | – | inactive |
| Cn1c2nc(=Nc3ccc(Cl)cc3)n3ccc4ccccc4c3c2c(=O)n1-c1ccccc1 | > 200 µM | 158 µM | – |
| N#CC1CC(c2ccccc2)Nc2cc(Cl)ccc2N1 (stereo not drawn) | > 47.9 µM | 6.92 µM | – |
| CC1=C(C)SC(=C2Sc3c(n(C)c(=O)[nH]c3=O)S2)S1 | > 200 µM | > 200 µM | – |
| O=c1c2cc3c(=O)n4c(cc(-c5ccccc5)c5cc(Cl)ccc54)nc3cc2nc2cc(-c3ccccc3)c3cc(Cl)ccc3n12 | > 100 µM | > 100 µM | – |
| O=C(Nc1ccc(N=Nc2ccc(S(=O)(=O)O)cc2)cc1)c1ccc(N=Nc2ccc3c(S(=O)(=O)O)cccc3c2O)cc1 | 30.9 µM | 195 µM | – |
| C=CC1=C(C)C2=NC1=CC1=NC(=CC3=C(C)C4=C(O)C(C(=O)O)C(=C5NC(=C2)C(C)C5CCC(=O)O)C4=N3)C(CC)=C1C (stereo not drawn) | > 39.8 µM | > 39.8 µM | – |
| Fc1c(F)c(-c2c(F)c(F)c(S)c(F)c2F)c(F)c(F)c1S | – | – | inactive |
| Cc1ccc(NC(=O)C(=O)C(C#N)c2ccccc2C)cc1C (stereo not drawn) | > 23.4 µM | > 23.4 µM | – |
| CC(=O)O[C@H]1CC[C@@]2(C)C(=CC[C@@H]3C2CC[C@]2(C)Nc4oncc4CC32)C1 (stereo partly drawn) | – | – | inactive |
| CC1=C(N2CC2)C(=O)c2nc3n(c2C1=O)CCC3OC(=O)CCl (stereo not drawn) | > 200 µM | 0.692 µM | – |
| O=C1C(Cl)C(c2ccccc2Cl)N1n1cnc2ccccc2c1=O (stereo not drawn) | > 14.5 µM | > 14.5 µM | – |
| COC(=O)C1=COC2OC3/C(=C\c4ccc(O)c(OC)c4)C(=O)OC34C=CC1C24 (stereo not drawn) | > 200 µM | 24 µM | – |
| CC(C)=CCC/C(C)=C/CC/C(C)=C/Cc1c[nH]c2ccccc12 | > 6.17 µM | > 6.17 µM | – |
| Oc1[nH]c(=S)sc1/C=C1\C=Nc2ccccc21 | > 501 µM | 195 µM | – |
| COC(=O)C(CC(=O)Nc1ccc(C)cc1)C(=O)C(=O)Nc1ccccc1C(C)C (stereo not drawn) | > 229 µM | > 229 µM | – |
| Nc1ccn(C2OC(COC(=O)c3ccccc3)C(OC(=O)c3ccccc3)C2I)c(=O)n1 (stereo not drawn) | > 200 µM | 35.5 µM | – |

| Compound | EC50 | IC50 | outcome |
| --- | --- | --- | --- |
| N#Cc1cc2ccccc2n(Cc2ccccc2)c1=O | > 200 µM | > 200 µM | – |
| Cc1nc(-n2nc(-c3ccccc3)cc2-c2ccccc2)sc1C(=O)/C=C/c1ccc(Cl)c(Cl)c1 | > 26.3 µM | > 26.3 µM | – |
| Cc1cc(C)cc(Sc2c([N+](=O)[O-])ncn2C)c1 | > 27.5 µM | 16.2 µM | – |
| CC(C1=CC=C2[C@@H]3CCC4CC(N(C)C)CC[C@]4(C)C3CC[C@]12C)N(C)C=O (stereo partly drawn) | > 35.5 µM | > 35.5 µM | – |
| CCOc1ccc(/C=N/[N+](C)(C)C)cc1OCC | > 200 µM | > 200 µM | – |
| Cc1ccc(S(=O)(=O)N2CCN3CCN(CCN(C)CCN4CCN(CC4)CCN(S(=O)(=O)c4ccc(C)cc4)CCN(S(=O)(=O)c4ccc(C)cc4)CCN(S(=O)(=O)c4ccc(C)cc4)CCN(S(=O)(=O)c4ccc(C)cc4)CCN4CCN(CCN(C)CCN5CCN(CC5)CCN(S(=O)(=O)c5ccc(C)cc5)CCN(S(=O)(=O)c5ccc(C)cc5)CCN(S(=O)(=O)c5ccc(C)cc5)CC2)CC4)CC3)cc1 | > 5.01 µM | 0.724 µM | – |
| Nc1ccc(/C=C\C2(CCl)OCCO2)cc1 | > 100 µM | > 100 µM | – |
| Cn1c(=O)c2c(no[n+]2[O-])c2ccccc21 | – | – | inactive |
| OCC1CC(F)C(n2cnc3c(F)ncnc32)O1 (stereo not drawn) | > 49 µM | 36.3 µM | – |
| Cc1cc2c(cc1C)NC(=O)CC(c1ccccc1)=N2 | > 200 µM | > 200 µM | – |
| CC(C)Nc1n[nH]c(=O)n1C(C)C | > 200 µM | > 200 µM | – |
| COc1cc(N(C)C)c(OC)cc1C=C1C=CC=C1 | > 977 µM | 0.407 µM | – |
| CC(=O)OC1CC2CC(=O)CC1N2C (stereo not drawn) | > 200 µM | > 200 µM | – |
| CCCCCCCCCCCC1CN=C(CCCCC2=NCC(CCCCCCCCCCC)N2)N1 (stereo not drawn) | > 7.08 µM | > 7.08 µM | – |
| CCOC(=O)C1=C(c2ccccc2)N(C(C)=O)Cc2ccccc21 | > 50.1 µM | 28.2 µM | – |
| NNc1n[nH]c(=S)n1N | > 200 µM | > 200 µM | – |
| O=C(CC(=O)c1cccc2ccccc12)C(=O)Nc1ccc(Cl)cc1 | – | – | inactive |
| CC(=O)CCCCn1c(=O)c2c(ncn2C)n(C)c1=O | > 891 µM | > 891 µM | – |
| O=C1c2ccccc2C(=O)c2c1sc1nc3ccccc3n21 | > 200 µM | 8.91 µM | – |
| c1ccc(COc2ncccc2C2SCCCS2)cc1 | > 200 µM | > 200 µM | – |
